A short description of test [1]: Antagonist activity at integrin alpha2b beta3 receptor in citrated human platelet-rich plasma assessed as inhibition of ADP-induced platelets aggregation preincubated for 15 mins followed by ADP addition measured for 8 mins by aggregometric analysis.
The nature of test [2]: Inhibition of alpha5 beta1 integrin (unknown origin) by cell migration assay.
Test [3] can be described thus: Inhibition of alpha5 beta1 integrin (unknown origin) by cell proliferation assay.
Test [4] is described as follows: Antagonist activity at integrin alpha2b beta3 receptor in citrated human platelet-rich plasma assessed as inhibition of ADP-induced platelet aggregation.

The structures appear in SMILES notation.

Regarding `CCc1nn2c(=O)cc(N3CCNCC3)nc2s1`, the IC50 in test [1] was determined as 9.7 µM. `O=c1c(C2NCCc3c2[nH]c2ccccc32)c(O)[nH]c(=S)n1Cc1ccc(F)cc1` (centres undefined): the values for the IC50 in test [2] and in test [3] were 15.5 µM and 20.5 µM, respectively. `N=C(N)c1ccc2cc(OC(=O)c3ccc(N=C(N)N)cc3)ccc2c1` [4-Guanidino-benzoic acid 6-carbamimidoyl-naphthalen-2-yl ester(FUT-175)]: in test [4], the IC50 was determined as 12 µM.

One may read the IC50 as the concentration at which inhibition is half-maximal.

The values above are taken from BindingDB's records for doi:10.1021/acs.jmedchem.6b01711 (University of Strathclyde, 2017).
